Assay results: the supplement of paper PMC10307832

Key:
Test in all cases: relative viability (nuclei count vs DMSO), 5 days (fraction); higher = more cells survive
Trametinib + AZD7762 = compound: CC(=O)Nc1cccc(-n2c(=O)n(C3CC3)c(=O)c3c(Nc4ccc(I)cc4F)n(C)c(=O)c(C)c32)c1 [Trametinib] + NC(=O)Nc1cc(-c2cccc(F)c2)sc1C(=O)N[C@H]1CCCNC1 [AZD7762] (partner 0.2 µM)
How it was run: (§1)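 Each reported value is a median over duplicate plates. It expresses relative viability: treated-well nuclei count divided by vehicle-well nuclei count. Lung cancer cell lines in 1536-well plates were dosed by pin tool a day after seeding, alone with one drug or with a fixed anchor-drug dose plus five library-drug doses (not always all listed) in √10 steps, and nuclei were counted after 5 days.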

Trametinib + Bortezomib = compound: CC(=O)Nc1cccc(-n2c(=O)n(C3CC3)c(=O)c3c(Nc4ccc(I)cc4F)n(C)c(=O)c(C)c32)c1 [Trametinib] + CC(C)C[C@H](NC(=O)[C@H](Cc1ccccc1)NC(=O)c1cnccn1)B(O)O [Bortezomib] (partner 0.002 µM)
How it was run: as §1

Trametinib + Crizotinib = compound: CC(=O)Nc1cccc(-n2c(=O)n(C3CC3)c(=O)c3c(Nc4ccc(I)cc4F)n(C)c(=O)c(C)c32)c1 [Trametinib] + C[C@@H](Oc1cc(-c2cnn(C3CCNCC3)c2)cnc1N)c1c(Cl)ccc(F)c1Cl [Crizotinib] (partner 1 µM)
How it was run: as §1

[1] = compound: CN1C=C(C2=CC=CC=C21)/C=C\3/C4=C(C=CC=N4)NC3=O + Cc1cc(Nc2cc(N3CCN(C)CC3)nc(Sc3ccc(NC(=O)C4CC4)cc3)n2)n[nH]1 [Tozasertib] (partner 0.1 µM)
How it was run: as §1

Cell Line | relative viability (Trametinib + AZD7762; first compound 0.0025 µM) | relative viability (Trametinib + AZD7762; first compound 0.007906 µM) | relative viability (Trametinib + AZD7762; first compound 0.025 µM) | relative viability (Trametinib + AZD7762; first compound 0.25 µM) | relative viability (Trametinib + Bortezomib; first compound 0.0025 µM) | relative viability (Trametinib + Bortezomib; first compound 0.007906 µM) | relative viability (Trametinib + Bortezomib; first compound 0.025 µM) | relative viability (Trametinib + Bortezomib; first compound 0.07906 µM) | relative viability (Trametinib + Bortezomib; first compound 0.25 µM) | relative viability (Trametinib + Crizotinib; first compound 0.0025 µM) | relative viability (Trametinib + Crizotinib; first compound 0.007906 µM) | relative viability (Trametinib + Crizotinib; first compound 0.025 µM) | relative viability (Trametinib + Crizotinib; first compound 0.07906 µM) | relative viability (Trametinib + Crizotinib; first compound 0.25 µM) | relative viability ([1]; first compound 0.02 µM) | relative viability ([1]; first compound 0.06325 µM) | relative viability ([1]; first compound 0.2 µM) | relative viability ([1]; first compound 0.6325 µM) | relative viability ([1]; first compound 2 µM) | relative viability (Trametinib + AZD7762; first compound 0.07906 µM)
NCI-H2405 | 0.566 | 0.616 | 0.425 | 0.401 | 0.999 | 0.909 | 0.657 | 0.597 | 0.508 | 0.864 | 0.836 | 0.685 | 0.561 | 0.521 | 0.742 | 0.717 | 0.67 | 0.721 | 0.731 | 
NCI-H1666 | 0.726 | 0.735 | 0.669 | 0.665 | 0.639 | 0.591 | 0.499 | 0.452 | 0.401 | 0.74 | 0.766 | 0.72 | 0.586 | 0.394 | 0.596 | 0.546 | 0.61 | 0.609 | 0.603 | 0.637
H3255 | 0.805 | 0.736 | 0.8 | 0.505 | 0.814 | 0.769 | 0.597 | 0.42 | 0.344 | 0.845 | 0.931 | 0.799 | 0.715 | 0.48 | 0.739 | 0.624 | 0.847 | 0.638 | 0.866 | 0.733
LCLC-103H | 0.835 | 0.69 | 0.611 | 0.644 | 1.16 | 0.977 | 0.887 | 0.821 | 0.626 | 0.938 | 1.07 | 0.799 | 0.756 | 0.76 | 0.313 | 0.506 | 0.475 | 0.511 | 0.536 | 0.758
NCI-H2347 | 0.642 | 0.41 | 0.296 | 0.296 | 1.08 | 0.818 | 0.338 | 0.389 | 0.337 | 0.698 | 0.476 | 0.252 | 0.464 | 0.433 |  | 0.421 | 0.556 | 0.512 | 0.681 | 0.29
HCC-15 | 1.29 | 1 | 1.14 | 0.407 | 0.946 | 0.62 | 0.731 | 0.492 | 0.203 | 0.658 | 0.53 | 0.415 | 0.259 | 0.187 | 0.322 | 0.406 | 0.493 | 0.346 | 0.531 | 0.928
NCI-H838 | 0.943 | 0.827 | 0.858 | 0.697 | 0.719 | 0.563 |  | 0.557 | 0.224 | 0.786 | 0.689 |  | 0.572 | 0.411 | 0.264 | 0.223 | 0.259 | 0.294 | 0.257 | 0.858
RERF-LC-KJ | 0.853 | 0.909 | 0.674 | 0.814 | 0.91 | 1.02 | 0.926 | 0.877 | 0.661 | 0.794 | 0.819 | 0.778 | 0.664 | 0.763 | 0.428 | 0.407 | 0.621 | 0.558 | 0.512 | 0.807
